The values below come from patent US4761398A, “Method of inducing birds to molt” (Embrex, Inc., priority 1986, dated 1988).

Test [1] has as its system single combed White Leghorn hens. The test is described as follows: Induction of molt by LHRH receptor ligand. Format: in vivo. The following applies: all treated groups, 25 micrograms/day. On the procedure:
(§1) After the two week pre-molt adjustment period, the hens were randomly assigned to each of eight different groups. These treatment groups were as follows: (1) control, (2) forced molt, (3) chemical molt-injected, (4) vehicle control-injected, (5) chemical molt-microcapsules A, (6) vehicle control-microcapsules A, (7) chemical molt-microcapsules B, and (8) vehicle control-microcapsules B.
(§2) The hens then received a seven day pre-molt treatment of a 24 hour light, zero hour dark photoperiod. On day 14 of the experiment the photoperiod was then reduced to natural day length for all treatments. Feed was made available ad libitum for all groups except the forced molt group. The forced molt group was deprived of food, but not of water, until a 30% body weight loss occurred (10 days of fasting).
[D-Trp^6 ]LHRH was used as the LHRH receptor ligand for the chemical molt groups. The "chemical molt-injected" group received intramuscular (breast) injections of 25 micrograms/day of [D-Trp^6 ]LHRH for 10 consecutive days beginning on day 14. Alternate pectoral (breast) areas were injected each day. […]
Microcapsules were suspended in disposable syringes in vehicle containing 2% carboxymethyl cellulose and 1% "TWEEN 20" in water. After thoroughly mixing the suspension, aliquots calculated to have released a dose of 25 micrograms/day for 15 consecutive days were injected into the breast muscle of the hens. […]

For test [2] the test system is unchanged. The test is described as follows: Hen-day egg production. The test is classed as in vivo. The method, then: During the experiment, two birds were assigned to each cage (12"×18"). The hens were maintained in their cages for two weeks prior to the molt. They received a 17 hour light: 7 hour dark photoperiod throughout this phase of the experiment. During this time, the following parameters were measured:(a) body weight (weekly); (b) feed consumption (all hens received a common layer ration, and the feed consumed during this two week period was measured); (C) production records (daily); and (d), total egg weight, egg shell weight, and egg specific gravity (measured on three consecutive days each week). Serum samples were taken once, from 10 randomly selected hens from each treatment group, and saved for future study.
as §1, §2
[D-Trp^6 ]LHRH was used as the LHRH receptor ligand for the chemical molt groups. The "chemical molt-injected" group received intramuscular (breast) injections of 25 micrograms/day of [D-Trp^6 ]LHRH for 10 consecutive days beginning on day 14. Alternate pectoral (breast) areas were injected each day. The "chemical molt-microcapsule" groups received a single intramuscular (breast) injection of microencapsulated [D-Trp^6 ]LHRH on day zero. This preparation of microcapsules provided a controlled release of 25 micrograms [D-Trp^6 ]LHRH per day for 15 consecutive days.
On day 14, the microcapsule injected groups received intramuscular injections of lactide/glycolide copolymer microcapsules which had [D-Trp^6 ]LHRH incorporated therein. The ligand-containing microcapsules administered the "Microcapsules A" group were prepared and supplied by Debiopharm (Lausanne, Switzerland). These microcapsules were prepared by a phase-separation process to produce a free-flowing powder of spherical particles consisting of [D-Trp^6 ]LHRH (2% wt/wt) distributed within a polymeric matrix of 53:47(mol %) poly(DL-lactide-co-glycolide) (98% wt/wt) with an inherent viscosity of 0.7 dl/g. The microcapsules were 50 micrometers or less in diameter. […] Photomicrographs of similar microcapsules are presented in T. W. Redding, et al., Proc. Natl. Acad. Sci. U.S.A., 81, 5845 (Sept. 1984).
Microcapsules were suspended in disposable syringes in vehicle containing 2% carboxymethyl cellulose and 1% "TWEEN 20" in water. After thoroughly mixing the suspension, aliquots calculated to have released a dose of 25 micrograms/day for 15 consecutive days were injected into the breast muscle of the hens. We weighed the microcapsules directly into disposable 3 ml syringes. The plunger of a plugged syringe containing microcapsules (without vehicle) was pulled back to the 1.5-2 cc mark. The hub of the syringe was then placed against a vortex mixer and the syringe vortexed rapidly for about 20 seconds, or until most of the clumps of microbeads were broken and distributed along the barrel of the syringe. An 18 gauge needle was then attached and 0.7 to 1.0 ml of […] injection vehicle was drawn into the syringe. With the needle in an upward position, the syringe was again placed against a vortex mixer and vortexed rapidly for 20 seconds, or until a suspension of microbeads was formed in the vehicle. […]

The next test has as its target T1, LHRH receptor (Homo sapiens, UniProt P30968).
T1 sequence (P30968 1-328): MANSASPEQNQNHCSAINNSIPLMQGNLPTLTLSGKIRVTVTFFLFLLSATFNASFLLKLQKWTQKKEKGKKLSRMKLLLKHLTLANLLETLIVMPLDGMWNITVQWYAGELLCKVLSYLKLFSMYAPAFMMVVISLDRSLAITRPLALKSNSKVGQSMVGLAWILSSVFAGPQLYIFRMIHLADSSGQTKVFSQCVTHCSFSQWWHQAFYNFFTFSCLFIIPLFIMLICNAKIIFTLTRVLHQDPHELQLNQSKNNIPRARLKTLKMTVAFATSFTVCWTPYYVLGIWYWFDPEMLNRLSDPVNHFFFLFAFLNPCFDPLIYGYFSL
The note with it: described in U.S. Pat. No. 4,010,125; cited from earlier work.

Take [D-Trp^6 ]LHRH [D-Trp^6 --LHRH]: in test [1], the induction of molt entry was “induced to molt”. Moreover, the “HEN-DAY EGG PRODUCTION Reported By Weeks” value in test [2] (listed as Day 5) stood at 61.508%; in test [2] (listed as Day 12) it was 26.984%; in test [2] (listed as Day 17), 4.683%; in test [2] (listed as Day 22) it was 7.619%; in test [2] (listed as Day 27), 30.000%; in test [2] (listed as Day 33), 58.095%. Moreover, the “HEN-DAY EGG PRODUCTION Reported By Weeks” value was determined as 63.333% in test [2] (listed as Day 40); 67.143% in test [2] (listed as Day 47); 76.667% in test [2] (listed as Day 54); 80.000% in test [2] (listed as Day 61); 76.667% in test [2] (listed as Day 75); 73.889% in test [2] (listed as Day 82). For the same substance, the “HEN-DAY EGG PRODUCTION Reported By Weeks” value in test [2] (listed as Day Zero) was 63.889%. For the same substance, on LHRH receptor, the duration of activity result was “prolonged activity”.
